In ChEMBL document CHEMBL1201862, “PubChem BioAssay data set” (2004):
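Each compound was tested at five concentrations against cells in 96-well plates for 48 hours. Abbreviation: GI50, concentration required for 50% inhibition of growth.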 Activity calls are given as the source filed them. Cut-off read from the data, not from the text of the source: active = GI50 up to about 1.1 µM and inactive = higher.

Columns and labels:
Experiment in all cases: NCI tumour cell line growth inhibition, 48 h
[1] = test system: NCI/ADR-RES
[2] = test system: SNB-19
[3] = test system: SK-MEL-2
[4] = test system: SF-539
[5] = test system: HCT-116
[6] = test system: CAKI-1
[7] = test system: RXF 393
[8] = test system: NCI-H522
[9] = test system: PC-3
[10] = test system: DU-145
[11] = test system: SW-620
[12] = test system: NCI-H460
[13] = test system: IGROV-1
[14] = test system: OVCAR-8
[15] = test system: RPMI-8226
[16] = test system: T47D
[17] = test system: TK-10
[18] = test system: M14
[19] = test system: BT-549
[20] = test system: COLO 205

Row | Structure (SMILES) | GI50 [1] | GI50 [2] | GI50 [3] | GI50 [4] | GI50 [5] | GI50 [6] | GI50 [7] | GI50 [8] | GI50 [9] | GI50 [10] | GI50 [11] | GI50 [12] | GI50 [13] | GI50 [14] | GI50 [15] | GI50 [16] | GI50 [17] | GI50 [18] | GI50 [19] | GI50 [20]
1 | C/C=C(/CBr)CCC(Br)C(C)(C)Cl.C/C=C(\CBr)CCC(Br)C(C)(C)Cl (stereo unspecified) | > 10 µM (inactive) | > 10 µM (inactive) | > 10 µM (inactive) | > 10 µM (inactive) | > 10 µM (inactive) | > 10 µM (inactive) | > 10 µM (inactive) | > 10 µM (inactive) | > 10 µM (inactive) | > 10 µM (inactive) | > 10 µM (inactive) | > 10 µM (inactive) | > 10 µM (inactive) | > 10 µM (inactive) | > 10 µM (inactive) | > 10 µM (inactive) | > 10 µM (inactive) | > 10 µM (inactive) | > 10 µM (inactive) | > 10 µM (inactive)
2 | CCOC(=O)C(NC(=O)CC(C)C)(N1CCN(c2cc3c(cc2F)c(=O)c(C(=O)O)cn3C2CC2)CC1)C(F)(F)F (stereo unspecified) | 19.7 µM (inactive) | 28.8 µM (inactive) | 20 µM (inactive) | 17.5 µM (inactive) | 20.4 µM (inactive) | 24.9 µM (inactive) | 17.2 µM (inactive) | 2.73 µM (inactive) | 15 µM (inactive) | 34.4 µM (inactive) | 19.6 µM (inactive) | 28.1 µM (inactive) | 12.6 µM (inactive) | 21.1 µM (inactive) | 20.9 µM (inactive) | 22.9 µM (inactive) | 10.3 µM (inactive) | 20 µM (inactive) | 16.3 µM (inactive) | 16.7 µM (inactive)
3 | CCOC(=O)C1=C(C)NC(C)=C(C(=O)OCCNC(=O)c2ccc(N=[N+]=[N-])cc2)C1c1ccccc1C(F)(F)F (stereo unspecified) [AZIDOPINE] | 8.28 µM (inactive) | 15.4 µM (inactive) | 6.53 µM (inactive) | 19.1 µM (inactive) | 9.73 µM (inactive) | 12.4 µM (inactive) | 9.57 µM (inactive) | 8.39 µM (inactive) | 3.28 µM (inactive) | 10.5 µM (inactive) | 15.3 µM (inactive) | 9.12 µM (inactive) | 18.7 µM (inactive) | 14.8 µM (inactive) | 4.37 µM (inactive) | 8.93 µM (inactive) | 8.22 µM (inactive) | 9.98 µM (inactive) | 13.9 µM (inactive) | 6.25 µM (inactive)
4 | COC(=O)c1c(O)ccc2c1c1c(n2CCc2ccccc2)C(=O)c2ccccc2C1=O | 6.9 µM (inactive) | 17.5 µM (inactive) | 15.1 µM (inactive) | 16.7 µM (inactive) | 10.9 µM (inactive) | 13.1 µM (inactive) | 13.3 µM (inactive) | 7.08 µM (inactive) | 11.6 µM (inactive) | 14.4 µM (inactive) | 13.2 µM (inactive) | 4.11 µM (inactive) | 11.9 µM (inactive) | 8.18 µM (inactive) | 7.03 µM (inactive) | 5.47 µM (inactive) | 11.6 µM (inactive) | 15.4 µM (inactive) | 15.4 µM (inactive) | 1.83 µM (inactive)
5 | C=C1CCC2C(C)(CO)C(O)CCC2(C)C1C/C=C1\C(=O)OCC1O (stereo unspecified) | 25 µM (inactive) | 54.8 µM (inactive) | 15.2 µM (inactive) | 20.6 µM (inactive) | 14.7 µM (inactive) |  | 18.7 µM (inactive) | 10.4 µM (inactive) | 20.1 µM (inactive) | 38.8 µM (inactive) | 9.71 µM (inactive) | 21.2 µM (inactive) | 18.2 µM (inactive) | 10.1 µM (inactive) | 5.42 µM (inactive) | 24.7 µM (inactive) | 52.8 µM (inactive) | 17.8 µM (inactive) | 7.53 µM (inactive) | 14.8 µM (inactive)
6 | Nc1ccccc1SC(C[N+](=O)[O-])c1ccc2c(c1)OCO2 (stereo unspecified) | 20.5 µM (inactive) | 12 µM (inactive) | 14.6 µM (inactive) | 2.24 µM (inactive) | 1.81 µM (inactive) | 13.7 µM (inactive) | 1.8 µM (inactive) | 14.1 µM (inactive) | 7.66 µM (inactive) | 2.62 µM (inactive) | 2.31 µM (inactive) | 2.12 µM (inactive) | 1.51 µM (inactive) | 2.78 µM (inactive) | 1.22 µM (inactive) | 4.18 µM (inactive) | 2.63 µM (inactive) | 1.62 µM (inactive) | 4.22 µM (inactive) | 3.71 µM (inactive)
7 | COc1c(O)cc2c(c1O)C(=O)C(Cc1ccc(O)cc1)CO2 (stereo unspecified) | 32.7 µM (inactive) | > 100 µM (inactive) | > 100 µM (inactive) | 56.4 µM (inactive) | 99.1 µM (inactive) | 78.9 µM (inactive) | > 100 µM (inactive) | 80.7 µM (inactive) | 41.7 µM (inactive) | > 100 µM (inactive) | > 100 µM (inactive) | 44.6 µM (inactive) | > 100 µM (inactive) | 63.1 µM (inactive) | 25.7 µM (inactive) | > 100 µM (inactive) | > 100 µM (inactive) | > 100 µM (inactive) | 46.7 µM (inactive) | > 100 µM (inactive)
8 | C=CCC(C(=O)O)c1ccccc1 (stereo unspecified) | > 100 µM (inactive) | > 100 µM (inactive) | > 100 µM (inactive) | > 100 µM (inactive) | > 100 µM (inactive) | > 100 µM (inactive) | > 100 µM (inactive) | > 100 µM (inactive) | > 100 µM (inactive) | > 100 µM (inactive) | > 100 µM (inactive) | > 100 µM (inactive) | > 100 µM (inactive) | > 100 µM (inactive) | > 100 µM (inactive) | > 100 µM (inactive) | > 100 µM (inactive) | > 100 µM (inactive) | > 100 µM (inactive) | > 100 µM (inactive)
9 | O=C1c2ccccc2C(=O)c2c(NCCCNCCO)ccc(NCCCNCCO)c21 | 28.5 µM (inactive) | 5.11 µM (inactive) | 13.2 µM (inactive) | 4.24 µM (inactive) | 4.33 µM (inactive) | 10 µM (inactive) | 4.69 µM (inactive) | 3.03 µM (inactive) | 7.67 µM (inactive) | 10.2 µM (inactive) | 5.13 µM (inactive) | 3.8 µM (inactive) | 15.7 µM (inactive) | 7.74 µM (inactive) | 10.6 µM (inactive) | 8.91 µM (inactive) | 16 µM (inactive) | 9.68 µM (inactive) | 14.5 µM (inactive) | 5.85 µM (inactive)
10 | Cc1ccc2c(c1)NC(=O)CCSSCCC(=O)N2 | > 100 µM (inactive) | > 100 µM (inactive) | > 100 µM (inactive) | > 100 µM (inactive) | > 100 µM (inactive) | > 100 µM (inactive) | > 100 µM (inactive) | > 100 µM (inactive) | > 100 µM (inactive) | > 100 µM (inactive) | > 100 µM (inactive) | > 100 µM (inactive) | > 100 µM (inactive) | > 100 µM (inactive) | > 100 µM (inactive) | > 100 µM (inactive) | > 100 µM (inactive) | > 100 µM (inactive) | > 100 µM (inactive) | > 100 µM (inactive)
11 | Cc1cnc2c(c1C)C(=O)c1ccccc1C2=O | 46.3 µM (inactive) | 41.9 µM (inactive) | 63.5 µM (inactive) | 29.2 µM (inactive) | 36.1 µM (inactive) | 30 µM (inactive) | 58.1 µM (inactive) | > 100 µM (inactive) | 26 µM (inactive) | > 100 µM (inactive) | 27.5 µM (inactive) | 18.8 µM (inactive) | 32.6 µM (inactive) | 43.2 µM (inactive) | 24.6 µM (inactive) | 70.5 µM (inactive) | > 100 µM (inactive) | 69 µM (inactive) | > 100 µM (inactive) | 28.8 µM (inactive)
12 | CC(=O)c1c(C)n(C)c2c1nnc1ccccc12 | 46.5 µM (inactive) | 55.5 µM (inactive) | > 100 µM (inactive) | 34.8 µM (inactive) | 33.7 µM (inactive) | 35.7 µM (inactive) | 40.2 µM (inactive) | > 100 µM (inactive) | 59.3 µM (inactive) | 80.5 µM (inactive) | 44.5 µM (inactive) | 25.7 µM (inactive) |  | 43.5 µM (inactive) | 38.6 µM (inactive) | > 100 µM (inactive) | 29.4 µM (inactive) | 67.8 µM (inactive) | 71.3 µM (inactive) | 30.9 µM (inactive)
13 | O=C(CC(=O)Nc1ccccc1)NNC(Sc1ccccc1)c1cc(/N=N/c2ccc(Br)cc2)ccc1O (stereo unspecified) | 1.26 µM (inactive) | > 10 µM (inactive) | > 10 µM (inactive) | 1.66 µM (inactive) | 0.448 µM (active) | 4.82 µM (inactive) | 2.37 µM (inactive) | 4.81 µM (inactive) | 1.45 µM (inactive) | 2.11 µM (inactive) | 0.931 µM (active) | 0.773 µM (active) | 5.07 µM (inactive) |  | 4.2 µM (inactive) | 3.51 µM (inactive) | 1.45 µM (inactive) | 0.973 µM (active) | 5.12 µM (inactive) | 3.2 µM (inactive)
14 | CCOC(=O)C1=COC(C)(CCc2ccccc2)CC1=O (stereo unspecified) | > 100 µM (inactive) | 56.2 µM (inactive) | > 100 µM (inactive) | 66.5 µM (inactive) | 67.9 µM (inactive) | > 100 µM (inactive) | 59.4 µM (inactive) | 24.7 µM (inactive) | 89.1 µM (inactive) | > 100 µM (inactive) | > 100 µM (inactive) | 92.5 µM (inactive) |  | 52.4 µM (inactive) | 41.9 µM (inactive) | 47.2 µM (inactive) | > 100 µM (inactive) | > 100 µM (inactive) | 71.4 µM (inactive) | > 100 µM (inactive)
